Source: patent US20150224089A1, “COMBINATIONS OF IKKi/TBK1 INHIBITORS WITH BETA ADRENERGIC AGONISTS OR SYMPATHETIC NERVOUS SYSTEM ACTIVATORS” (THE REGENTS OF THE UNIVERSITY OF MICHIGAN, priority 2014, published 2015)
“Also recorded” adds a separate entry of the source.

Assays:
[1] = tested on: 3T3-L1 adipocytes; assay: Immunoblots of β-adrenergic/PKA signaling (HSL, perilipin, PKA substrate, p38 phosphorylation) in 3T3-L1 adipocytes; format: cell-based
Protocol: (A) Glycerol release from 3T3-L1 adipocytes treated with or without different concentrations of TNFα as indicated for 24 hr followed by treatment with or without 10 μM ISO or 50 μM FSK. (B) cAMP levels from 3T3-L1 adipocytes treated with or without 100 ng/ml TNFα for 24 hr followed by treatment with or without 10 μM ISO or 50 μM FSK in the presence or absence of pretreatment of 50 μM Amlexanox (Am). (C) cAMP levels from 3T3-L1 adipocytes treated with or without 100 ng/ml TNFα for 24 hr followed by treatment with or without 50 μM FSK in the presence or absence of pretreatment of 1 μM CAY10576 (CAY). (D) Immunoblots of whole cell lysates from 3T3-L1 adipocytes treated with or without different concentrations of TNFα as same as FIG. 2A for 24 hr followed by treatment with or without 10 μM ISO or 50 μM FSK. […] Arrow indicates CGI-58. (E) Immunoblots of whole cell lysates from 3T3-L1 adipocytes treated with or without 50 ng/ml TNFα or 100 μg/ml poly (I:C) for 24 hr followed by treatment with or without 10 μM ISO for 15 min in the presence or absence of pretreatment with increasing concentrations (0, 10, 50, and 200 μM) of amlexanox for 30 min.
Experiments were conducted during development of embodiments of the present invention to determine whether the repression of β-adrenergic sensitivity produced by longer-term treatment with TNFα is due to increased activity of the noncanonical IKKs.

[2] = tested on: 3T3-L1 adipocytes; assay: cAMP levels in 3T3-L1 adipocytes; format: cell-based
Protocol: (A) Glycerol release from 3T3-L1 adipocytes treated with or without different concentrations of TNFα as indicated for 24 hr followed by treatment with or without 10 μM ISO or 50 μM FSK. (B) cAMP levels from 3T3-L1 adipocytes treated with or without 100 ng/ml TNFα for 24 hr followed by treatment with or without 10 μM ISO or 50 μM FSK in the presence or absence of pretreatment of 50 μM Amlexanox (Am). (C) cAMP levels from 3T3-L1 adipocytes treated with or without 100 ng/ml TNFα for 24 hr followed by treatment with or without 50 μM FSK in the presence or absence of pretreatment of 1 μM CAY10576 (CAY). (D) Immunoblots of whole cell lysates from 3T3-L1 adipocytes treated with or without different concentrations of TNFα as same as FIG. 2A for 24 hr followed by treatment with or without 10 μM ISO or 50 μM FSK. Results were replicated in multiple experiments. ‘[’ indicates total HSL. ‘n.s.’ represents non-specific band. Arrow indicates CGI-58. (E) Immunoblots of whole cell lysates from 3T3-L1 adipocytes treated with or without 50 ng/ml TNFα or 100 μg/ml poly (I:C) for 24 hr followed by treatment with or without 10 μM ISO for 15 min in the presence or absence of pretreatment with increasing concentrations (0, 10, 50, and 200 μM) of amlexanox for 30 min.
(A) cAMP levels from 3T3-L1 adipocytes expressing empty vector, Flag-IKKε, or Flag-TBK1 treated with or without 50 μM FSK, 250 μM IBMX, or together for 15 min. (B) cAMP levels from 3T3-L1 adipocytes expressing empty vector, Flag-IKKε, or Flag-TBK1 treated with or without 10 μM ISO or 50 μM FSK together with or without 10 μM Zardaverine (Zarda) for 15 min. (C) 32P phospho-image of in vitro kinase reaction using either immunoprecipitated HA-PDE3B from HEK293T cells or 1 μg MBP (myelin basic protein) as a substrate with recombinant kinases as indicated. (D) Immunoblots of immunoprecipitation with anti-HA antibodies followed by treatment with or without CIP (top panel) and whole cell lysates (bottom panel) from Cos-1 cells co-expressing HA-PDE3B with Flag-IKKε/TBK1 or Flag-IKKε/TBK1 K38A. D.E. stands for dark exposure and L.E. stands for light exposure. (E) Immunoblots of GST-14-3-3 pulldown from HEK293T cells co-expressing HA-PDE3B with Flag-TBK1 or Flag-TBK1 K38A.
Obesity is accompanied by infiltration of proinflammatory macrophages into adipose tissue; these cells secrete inflammatory cytokines, such as TNFα, which generate insulin resistance by stimulating catabolic pathways (Hotamisligil, 2006; Lumeng et al., 2007; Ye and Keller, 2010; Ouchi et al., 2011; herein incorporated by reference in their entireties). Although TNFα is known to increase lipolysis in adipocytes (Zhang et al., 2002; Souza et al., 2003; Green et al., 2004; Plomgaard et al., 2008; herein incorporated by reference in their entireties), there is also evidence of a counterinflammatory response in obesity that may serve to repress energy expenditure (Gregor and Hotamisligil, 2011; Saltiel, 2012; Calay and Hotamisligil, 2013; Reilly et al., 2013; herein incorporated by reference in their entireties). Experiments were conducted during development of embodiments of the present invention using TNFα to model the inflammatory milieu of obese adipose tissue in cell culture to determine whether the cytokine might also regulate β-adrenergic signaling in this context. While short-term treatment with TNFα augmented the increase in cAMP produced by forskolin treatment, this effect declined after 12 hr. […] Thus, the catabolic effects of the proinflammatory cytokine TNFα in adipocytes are transient and followed by an inhibitory phase.
Treatment of 3T3-L1 adipocytes with TNFα for 24 hr induced the expression of IKKε and increased TBK1 phosphorylation at the active site in a manner that was dependent on the activity of IKKβ and the NFκB pathway (Reilly et al., 2013; herein incorporated by reference in its entirety). […]

Compound	isoproterenol-stimulated β-adrenergic signaling (phosphorylation of HSL, perilipin, PKA substrate motif proteins) ([1]; TNFα for 24 hr, 10 μM ISO)	isoproterenol- and forskolin-stimulated cAMP production ([2]; TNFα for 24 hr (100 ng/ml), 10 μM ISO or 50 μM FSK)	increase in cAMP produced by forskolin treatment ([2]; short-term treatment with TNFα)	effect on TNFα inhibition of isoproterenol-stimulated β-adrenergic signaling (phospho-PKA substrate, phospho-HSL, phospho-perilipin) ([1]; amlexanox pretreatment 0, 10, 50, 200 μM for 30 min, 50 ng/ml TNFα 24 hr, 10 μM ISO 15 min)	phosphorylation of p38 in response to isoproterenol ([1]; amlexanox pretreatment 0, 10, 50, 200 μM, dose-dependent)	effect on Poly (I:C) inhibition of sensitivity to isoproterenol stimulation ([1]; amlexanox pretreatment, 100 μg/ml poly (I:C) 24 hr, less than with TNFα)	rescue of TNFα-decreased isoproterenol- and forskolin-stimulated cAMP production ([2]; preincubation with 50 μM amlexanox, 100 ng/ml TNFα 24 hr, 10 μM ISO or 50 μM FSK)
TNFα	decreased	inhibited the production of the second messenger; also recorded: decreased isoproterenol- and forskolin-stimulated cAMP production	augmented				
CC(C)c1ccc2oc3nc(N)c(C(=O)O)cc3c(=O)c2c1 [amlexanox, 2-amino-7-isopropyl-1-azaxanthone-3-carboxylic acid; 2-amino-7-isopropyl-5-oxo-5H-chromeno[2,3-b]pyridine-3-carboxylic acid]				blocked the inhibitory effect of TNFα	dramatically augmented	partially restored	largely rescued
